# Data as given in US20190098891A1, “Compositions and Methods for Biopreservation” (Augusta University Research Institute, Inc., priority 2017, published 2019).
# Tested on: mouse M II oocytes
# Test: Post-rehydration survival of mouse M II oocytes after fast or slow desiccation
# Format: cell-based
# Text: A phosphate-buffered saline (PBS) containing 0.4% bovine serum albumin (BSA) was used as a starting desiccation medium based on its simple composition that was preferable to not complicate the experimental outcome due to components of a complex desiccation medium. Further, the objective of these experiments was to test the effect of the desiccation duration without bringing specimen into a glassy state.
# Slow and fast desiccation are can be achieved by adjusting several variables (e.g., temperature and flow rate of dry nitrogen gas, temperature of stage warmer, droplet size, etc.). Slow and fast desiccation of M II oocytes were achieved by changing the flow rate of dry nitrogen gas using a flowmeter (Gilmont Instruments) while performing the experiments at ambient temperature.
# The fast protocol required approximately 9 minutes to desiccate a sample to a residual moisture content of 5% while the same residual moisture content was obtained in ca. 20 minutes in the case of slow desiccation. […]
# The residual moisture content (% RM) of samples was determined gravimetrically using the following formula: […]
structure (smiles),measurement,value
OC[C@H]1O[C@H](O[C@H]2O[C@H](CO)[C@@H](O)[C@H](O)[C@H]2O)[C@H](O)[C@@H](O)[C@@H]1O [trehalose],desiccation tolerance,improves the desiccation tolerance
